# Measured values taken from PMC5850989 (Toxicology letters, 2016).
# How the values were obtained:
# CaCo-2 cells = conditions: average for Enn A, A1, B and B1, ref Meca et al., 2012; cited from earlier work
# [1] = ref Manyes et al., 2014, cited from earlier work
# [2] = format: in vivo, SCID mice; conditions: 5 mg/kg i.p.
# [3] = Evaluation of toxicological effects: body weight, behavior, histology; format: in vivo, SCID mice; conditions: 5 mg/kg i.p., short-term and 9-day schedules
# [4] = format: in vivo, CB-17 scid/scid mice; conditions: KB-3-1 xenograft
# [5] = 5 mg/kg b.w. i.p. daily, 9 days, mean ± SD (n = 4)
smiles,measurement,setting,value
CC[C@H](C)[C@H]1C(=O)O[C@H](C(C)C)C(=O)N(C)[C@@H]([C@@H](C)CC)C(=O)O[C@H](C(C)C)C(=O)N(C)[C@@H]([C@@H](C)CC)C(=O)O[C@H](C(C)C)C(=O)N1C [Enn A],Apparent mean bioavailability,CaCo-2 cells,80%
same,Detection in kidneys,[1]; Enn A-fed Wistar rats,no Enn A was detected in kidneys
same,"Adverse effects (histological analyses, biochemical blood parameters)","[1]; repeated dose 20.91 mg Enn A/kg b.w./day, 28 days, feed",no adverse effects
"CC(C)[C@H]1C(=O)O[C@H](C(C)C)C(=O)N(C)[C@@H](C(C)C)C(=O)O[C@H](C(C)C)C(=O)N(C)[C@@H](C(C)C)C(=O)O[C@H](C(C)C)C(=O)N1C [Enn B, Enniatin B]","Concentration in liver, quantified with Enn B calibration curve",[2]; 2-days Enn B-treated SCID mice,2.9 ± 0.6 µg/kg
same,"Metabolites in serum, brain, muscle and kidney",[2]; short-term treatment,no metabolites were found
same,Apparent mean bioavailability,CaCo-2 cells,80%
same,"Apparent signs of toxicity (food and fluid consumption, fatigue, body weight alterations)",[3],None of the treatment schedules showed apparent signs of toxicity
same,Concentration in serum,[4]; [5],5.4 ± 0.2 µg/kg
same,Concentration in tumor,[4]; [5],2.8 ± 0.8 µg/kg
same,Degradation products (metabolites) in tumor tissues,"[4]; 9-day treatment, 5 mg/kg i.p.",no degradation products could be found
CC(C)C1NC(=O)C(C(C)C)OC(=O)C(C(C)C)N(C)C(=O)C(C(C)C)OC(=O)C(C(C)C)N(C)C(=O)C(C(C)C)OC1=O (stereo not shown) [Mono-demethylated-Enn B],"Concentration in colon, quantified with Enn B calibration curve",[2]; 2-days Enn B-treated SCID mice,0.6 ± 0.09 µg/kg
same,"Concentration in liver, quantified with Enn B calibration curve",[2]; 2-days Enn B-treated SCID mice,0.7 ± 0.1 µg/kg
CC[C@H](C)[C@H]1C(=O)O[C@H](C(C)C)C(=O)N(C)[C@@H]([C@@H](C)CC)C(=O)O[C@H](C(C)C)C(=O)N(C)[C@@H](C(C)C)C(=O)O[C@H](C(C)C)C(=O)N1C [Enn A1],Apparent mean bioavailability,CaCo-2 cells,80%
